Values after ≈ are worked out from the molar mass of the structure shown. “Also recorded” adds a separate entry of the source. Like-named read-outs stand apart in the source and are kept apart here.
What was measured:
[1] = system: MRC5 cells (human lung fibroblasts); assay: MRC5 proliferation assay; assay type: cell-based; settings: geometric mean of two or more determinations
Description: (§1) Trypanosome and MRC5 proliferation assay: Measurement of inhibition of the proliferation of MRC5 cells (human lung fibroblasts) and T. brucei bloodstream-stage cells was performed using a modification of a cell viability assay previously described.[35, 36] Compounds ([…] to 0.5 nM) were incubated with 2×10^3 cells per well in 0.2 mL of the appropriate culture medium (MEM with 10 % foetal bovine serum for MRC5 cells) in clear 96-well plates. Plates were incubated at 37 °C in the presence of 5 % CO2 for 69 h. Resazurin was then added to a final concentration of 50 μM, and plates were incubated as above for a further 4 h before being read on a BioTek Flx800 fluorescence plate reader.

[2] = system: T. b. brucei; assay: Trypanosome proliferation assay; assay type: cell-based, Trypanosoma brucei brucei; settings: for EC50: Trypanosoma brucei, read-out: EC50 T. b. brucei; for fold loss of activity (T. b. brucei EC50): relative to the comparator compound
Description: as §1

[3] = Plasma protein binding (equilibrium dialysis); assay type: in vitro ADME; settings: female, CD1; mouse plasma, equilibrium dialysis; read-out: PPB
Description: Plasma protein binding experiments: In brief, a 96-well equilibrium dialysis apparatus was used to determine the free fraction in plasma for each compound (HT Dialysis LLC, Gales Ferry, CT, USA). Membranes (12-14 kDa cutoff) were conditioned in deionised H2O for 60 min, followed by conditioning in 80:20 deionised H2O/EtOH for 20 min, and then rinsed in isotonic buffer before use. Female CD1 mouse plasma was removed from the freezer and allowed to thaw on the day of experiment. Thawed plasma was then centrifuged (Allegra […], Beckman Coulter, USA), spiked with test compound (10 μg g^-1), and 150 μL aliquots (n=6 replicate determinations) loaded into the 96-well equilibrium dialysis plate. Dialysis against isotonic buffer (150 μL) was carried out for 5 h in a temperature-controlled incubator at ∼37 °C (Barworld Scientific Ltd., UK) using an orbital microplate shaker at 125 rpm (Barworld Scientific). At the end of the incubation period, aliquots of plasma or buffer were transferred to micronic tubes (Micronic B.V., the Netherlands), and the composition in each tube was balanced with control fluid such that the volume of buffer to plasma is the same. Sample extraction was performed by the addition of 400 μL MeCN containing an appropriate internal standard. Samples were allowed to mix for 1 min and then centrifuged at 3000 rpm in 96-well blocks for 15 min (Allegra […], Beckman Coulter, USA). All samples were analysed by UPLC-MS/MS on a Quattro Premier XE Mass Spectrometer (Waters Corp.). The unbound fraction was determined as the ratio of the peak area in buffer to that in plasma.

[4] = system: T. brucei bloodstream-stage cells; assay: Static–cidal (SC) assay; assay type: cell-based, Trypanosoma brucei brucei; settings: for EC50 / MCC: Trypanosoma brucei; for EC50: 48 h; for MCC: read-out: MCC (minimal cidal concentration); for mode of antiparasitic effect (in words): text and figure legend, at concentrations tested; for Mode: static/cidal classification from growth curves; for plateau of dose–response curve (inhibition): static–cidal dose–response curve
Description: Determination of cidality against T. brucei bloodstream-stage cells was performed using a static–cidal (SC) assay as previously reported.[26] Briefly, bloodstream-form trypanosomes were seeded into 384-well plates at 4×10^5 mL^−1 (50 μL per well), followed by immediate addition of resazurin (50 μM final) to one of the plates, and all plates were incubated at 37 °C, 5 % CO2. After 4 h the t0 plate was read using a PerkinElmer Victor 3 plate reader (λex=528 nm, λem=590 nm). The second plate was processed in the same manner 20 h later, and at 44 h the last plate was processed. The minimum cidal concentration (MCC) is defined as the lowest concentration of drug that results in a decrease of resorufin signal over time. For dose–response curves from this assay either a monophasic or a biphasic equation was used, depending on which one provided the best fit. For monophasic fits, the following four-parametric equation [Eq. (1)] was used:
in which A=percent inhibition at bottom, B=percent inhibition at top, C=EC50, D=slope, x=inhibitor concentration, and y=percent inhibition. Equation (2) was used for biphasic fits:
for which A=percent inhibition at mid-plateau, B=slope, C=log[SC EC50(1)], D=log[SC EC50(2)]. Thus SC EC50(1) is the EC50 for the first phase of the curve, and SC EC50(2) is that for the second phase. Inhibition at the bottom of the curve is fixed at 0 % and at the top, 100 %.

[5] = Kinetic aqueous solubility (laser nephelometry); assay type: physicochemical; settings: Milli-Q water with 2.5% DMSO, kinetic from dmso stock, range 250–12 μM, read-out: Aq. Sol. (aqueous kinetic solubility)
Description: Solubility experiments: The kinetic aqueous solubility of the test compounds was measured using laser nephelometry. Compounds were subject to serial dilution from 10 mM to 0.5 mM in DMSO. An aliquot was then mixed with Milli-Q H2O to obtain an aqueous dilution plate with a final concentration range of 250–12 μM, with a final DMSO concentration of 2.5 %. Triplicate aliquots were transferred to a flat-bottomed polystyrene plate which was immediately read on the NEPHELOstar (BMG Lab Technologies). The amount of laser scatter caused by insoluble particulates (relative nephelometry units, RNU) was plotted against compound concentration using a segmental regression fit, with the point of inflection being quoted as the compounds′ aqueous solubility (in μM).

[6] = geometric mean of two or more determinations, standard cell viability (resazurin) assay
[7] = static cidal EC50, first site/phase, read-out: SC EC50(1)
[8] = static–cidal assay in triplicate
[9] = static cidal EC50, second site/phase, read-out: SC EC50(2)

Structure (SMILES)	EC50 [1]	EC50 [2, 6]	fold loss of activity (T. b. brucei EC50) [2]	also measured
C[C@@H](c1ccccc1)n1c(=O)[nH]c2ncc(-c3ccc(F)cc3)nc21 [Compound 8]	> 50000 nM	90 nM	–	–
CNC(=O)c1ccc(-c2cnc3[nH]c(=O)n(C4CCCCC4)c3n2)cc1 [Compound 22]	> 50000 nM	1700 nM	30 fold	–
CN1CCN(c2cnc3[nH]c(=O)n(C4CCCCC4)c3n2)CC1 [Compound 33]	> 50000 nM	2000 nM	50 fold	–
OCc1ccccc1-c1cnc2[nH]nc(C3CCCCC3)c2c1 [Compound 61]	> 50000 nM	1300 nM	–	–
O=c1[nH]c2ncc(-c3ccccc3F)nc2n1C1CCCCC1 [Compound 26]	> 50000 nM	60 nM	–	fraction unbound at 5 h, 10 μg g^−1 [3]: 0.007; EC50 [4, 7]: 90 nM; MCC [4, 8]: > 50000 nM; mode of antiparasitic effect (in words) [4]: growth-slowing or static behaviour; solubility kinetic [5]: 20 µM (≈ 6.25 µg/mL)
CC(=O)Nc1cccc(-c2cnc3[nH]c(=O)n(C4CCCCC4)c3n2)c1 [Compound 25]	> 50000 nM	900 nM	–	–
O=c1[nH]c2ncc(-c3cccc(CO)c3)nc2n1C1CCCCC1 [Compound 24]	> 50000 nM	30 nM	–	EC50 [4, 7]: 70 nM; EC50 [4, 9]: 30000 nM; MCC [4, 8]: > 50000 nM; Mode [4]: S; mode of antiparasitic effect (in words) [4]: growth-slowing or static behaviour; also recorded: static at concentration tested; solubility kinetic [5]: > 250 µM
C[C@H](c1ccccc1)n1c(=O)[nH]c2ncc(-c3ccc(O)cc3)nc21 [Compound 3]	–	900 nM	–	–
C[C@H](c1ccccc1)n1c(=O)[nH]c2ncc(-c3cccc(F)c3)nc21 [Compound 17]	44000 nM	300 nM	–	–
O=c1[nH]c2ncc(-c3ccc(F)cc3)nc2n1Cc1ccccc1 [Compound 9, 1-Benzyl-6-(4-fluorophenyl)-1H-imidazo[4,5-b]pyrazin-2(3H)-one]	> 50000 nM	500 nM	–	–
O=c1[nH]c2ncc(-c3ccccc3CO)cc2n1C1CCCCC1 [Compound 53]	> 50000 nM	670 nM	~13 fold	–
C[C@H](c1ccccc1)n1c(=O)[nH]c2ccc(-c3ccc(F)cc3)cc21 [Compound 47]	–	10000 nM	100 fold	–
O=c1[nH]c2ncc(N3CCOCC3)nc2n1C1CCCCC1 [Compound 32]	> 50000 nM	50 nM	–	solubility kinetic [5]: 220 µM (≈ 66.7 µg/mL)
COc1ccc(-c2cnc3[nH]c(=O)n(C4CCCCC4)c3n2)cc1 [Compound 20]	24000 nM	330 nM	–	fraction unbound at 5 h, 10 μg g^−1 [3]: 0.007
COCc1ccccc1-c1cnc2[nH]nc(C3CCCCC3)c2c1 [Compound 62]	> 50000 nM	2600 nM	–	–
CC(C)(c1ccccc1)n1c(=O)[nH]c2ncc(-c3cccnc3)cc21 [Compound 52]	23000 nM	790 nM	–	–
CN(C)Cc1ccc(-c2cnc3[nH]c(=O)n(C4CCCCC4)c3n2)cc1 [Compound 23]	> 50000 nM	5000 nM	50 fold	–
Cn1c(=O)[nH]c2ncc(-c3ccc(F)cc3)nc21 [Compound 11]	> 50000 nM	40000 nM	100 fold	–

Structure (SMILES)	EC50 [1]	EC50 [2, 6]	fold loss of activity (T. b. brucei EC50) [2]	also measured
CN1CCC(n2c(=O)[nH]c3ncc(-c4ccccc4)nc32)CC1 [Compound 42]	> 50000 nM	2000 nM	–	–
C[C@H](c1ccccc1)n1c(=O)n(C)c2ncc(-c3ccc(F)cc3)nc21 [Compound 48]	–	8000 nM	100 fold	–
COc1ccccc1-c1cnc2[nH]c(=O)n(C3CCCCC3)c2n1 [Compound 27]	> 50000 nM	900 nM	–	–
O=c1[nH]c2ncc(-c3ccccc3)nc2n1-c1ccccc1 [Compound 37]	> 50000 nM	> 50000 nM	–	–
O=c1[nH]c2ncc(-c3ccc(CO)cc3)nc2n1C1CCCCC1 [Compound 21]	> 50000 nM	400 nM	10 fold	fraction unbound at 5 h, 10 μg g^−1 [3]: 0.047
CC(C)n1c(=O)[nH]c2ncc(-c3ccccc3)nc21 [Compound 36]	> 50000 nM	300 nM	10 fold	–
COCCCn1c(=O)[nH]c2ncc(-c3ccc(OC(F)(F)F)cc3)nc21 [Compound 2]	15000 nM	500 nM	–	–
CC(C)(c1ccccc1)n1c(=O)[nH]c2ncc(-c3ccccc3CO)cc21 [Compound 54]	> 50000 nM	15000 nM	–	–
CCC(CO)n1c(=O)[nH]c2ncc(-c3ccccc3)nc21 (centres unmarked) [Compound 40]	> 50000 nM	500 nM	~10 fold	–
O=c1[nH]c2ncc(N3CCOCC3)cc2n1C1CCCCC1 [Compound 57]	> 50000 nM	330 nM	~7 fold	–
COCC(C)n1c(=O)[nH]c2ncc(-c3ccccc3)nc21 (centres unmarked) [Compound 39, 1-(1-Methoxypropan-2-yl)-6-phenyl-1H-imidazo[4,5-b]pyrazin-2(3H)-one]	> 50000 nM	200 nM	–	EC50 [4, 7]: 410 nM; EC50 [4, 9]: 32000 nM; MCC [4, 8]: > 50000 nM; Mode [4]: S; mode of antiparasitic effect (in words) [4]: growth-slowing or static behaviour
Nc1nc(N)nc(Nc2ccc([As]3SCC(CO)S3)cc2)n1 (centres unmarked) [melarsoprol, reference compound]	–	–	–	EC50 [2]: 9 nM; EC50 ([4]; read-out: SC EC50(1)): 31 nM; MCC [4]: 100 nM; plateau of dose–response curve (inhibition) [4]: 100 % inhibition
O=c1[nH]c2ncc(-c3ccncc3)nc2n1C1CCCCC1 [Compound 29]	> 50000 nM	70 nM	–	–
N=C(N)c1ccc(OCCCCCOc2ccc(C(=N)N)cc2)cc1 [pentamidine, reference compound]	–	4 nM	–	EC50 [4, 7]: 19 nM; MCC [4, 8]: 100 nM; plateau of dose–response curve (inhibition) [4]: 100 % inhibition; mode of antiparasitic effect (in words) [4]: cidal
CN(C)CCn1c(=O)[nH]c2ncc(-c3ccccc3)nc21 [Compound 41]	> 50000 nM	13000 nM	–	–
C[C@H](c1ccccc1)n1c(=O)[nH]c2nccnc21 [Compound 16]	> 50000 nM	36000 nM	> 300 fold	–
C[C@H](c1ccccc1)n1c(=O)[nH]c2ncc(-c3ccc(OC(F)(F)F)cc3)nc21 [Compound 15]	39000 nM	1000 nM	10 fold	–
